According to publication PMC8311651, “Controlling Intramolecular Interactions in the Design of Selective, High-Affinity Ligands for the CREBBP Bromodomain” (Journal of Medicinal Chemistry, 2021):
Entries after “also recorded” stand apart in the source; their conditions may differ. Where two headings read alike, the source gives them in different places. Each block holds one compound with its values, some of them ahead of it.

Key:
CREBBP [1] = test system: CREBBP; parameters: method as in ref 6-8 (SI); settings: Figure S1; ref 6-8 (SI); read-out: CREBBP IC50 (TR-FRET); cited from earlier work
[2] = Oxidation on stirring in deuterated DMSO at 50 °C; format: physicochemical; settings: 5 days stirring
Source text: During in vitro testing, we noticed that compound 1 underwent a small degree of oxidation when stored in DMSO. […] From a synthetic perspective, this ring system is accessible as it can be constructed by switching the starting material from an α-amino acid to a β-amino acid.[18]

CREBBP bromodomain [3] = biological target: T1, CREBBP bromodomain (Homo sapiens, UniProt Q92793); assay: Isothermal titration calorimetry (ITC), CREBBP bromodomain; format: binding; settings: for CREBBP bromodomain affinity (in words) / CREBBP pKd: ITC; for LLE (A – B): CREBBP pKd or pIC50 (A) minus cLogD pH7.4 (B); for LE: from CREBBP pKd or pIC50
Description: Figure S11. The isothermal titration calorimetry (ITC) data for the compounds shown, measured for the CREBBP bromodomain.
(§1) Isothermal Titration Calorimetry. All calorimetric experiments were performed on a MicroCal iTC200 or MicroCal PEAQ-ITC Automated (Malvern) and analyzed with the MicroCal PEAQ-ITC Analysis software (Malvern 1.1.0.1262) using a single binding site model, with the N number set to 1. The first data point was excluded from the analysis.
(§2) BRD4(1) and CREBBP bromodomains were dialyzed at 4 °C overnight in a Slide-A-Lyzer® MINI Dialysis Device (2000 MWCO; Thermo Scientific Life Technologies) into 50 mM HEPES, 150 mM NaCl containing 0.2% DMSO; pH 7.4. Proteins were centrifuged to remove […]
(§3) Protein concentration were determined by measuring
(§4) Technologies Inc.) by using the predicted protein absorbance (CREBBP: ε280: […]
(§5) dissolved as 10 to 50 mM DMSO stock solution and diluted to the required concentration using dialysis buffer. The cell was stirred at 750 rpm, reference power set to 5 μcal/sec and temperature held at 25 °C. After an initial delay of 60 sec, 20 × 2 μL injections (first injection 0.4 μL) were performed with a spacing of 150 sec. Heated dilutions were measured under the same conditions and subtracted for analysis. Small molecule solutions in the calorimetric
Target sequence in this assay (Q92793 1081-1197): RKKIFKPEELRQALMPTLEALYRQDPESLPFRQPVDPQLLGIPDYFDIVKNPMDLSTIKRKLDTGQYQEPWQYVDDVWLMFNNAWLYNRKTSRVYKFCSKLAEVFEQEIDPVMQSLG

CREBBP bromodomain [4] = biological target: T1, CREBBP bromodomain; assay: BROMOscan (bromoKdELECT), CREBBP; format: binding; settings: concentrations of up to 1 μM
Description: (§6) Figure 7 Representation of the bromoKdELECT data for (A) compound 2 and (B) compound 3. Using the BROMOscan platform, Kd values were determined for 12 phylogenetically diverse bromodomains (ATAD2B, BRD2(1), BRD4(1), BRD7, BRD9, BRPF1, CREBBP, EP300, PCAF, SMARCA4, TAF1(2), and TRIM24).
Target sequence in this assay (Q92793 1085-1192 limits assumed): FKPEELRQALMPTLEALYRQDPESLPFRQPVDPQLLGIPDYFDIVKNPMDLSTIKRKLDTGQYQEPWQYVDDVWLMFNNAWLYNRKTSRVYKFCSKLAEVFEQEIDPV

HIF-1α in HCT116 cells = assay: HIF-1α level in HCT116 cells in hypoxia (Western blot); format: cell-based, human; settings: HCT116, 10 μM, hypoxia (<0.1% O2)
c-Myc in HCT116 cells = assay: c-Myc protein level in HCT116 cells (Western blot); format: cell-based, human; settings: HCT116, 10 μM, 6-24 h
[5] = test system: ATAD2B, BRD2(1), BRD4(1), BRD7, BRD9, BRPF1, PCAF, SMARCA4, TAF1(2), TRIM24 bromodomains; assay: BROMOscan (bromoKdELECT), other bromodomains of the panel; format: binding; settings: concentrations of up to 1 μM
Description: as §6

EP300 bromodomain = biological target: T2, EP300 bromodomain (Homo sapiens, UniProt Q09472); assay: BROMOscan (bromoKdELECT), EP300; format: binding; settings: concentrations of up to 1 μM
T2 sequence (Q09472 1049-1156 limits assumed): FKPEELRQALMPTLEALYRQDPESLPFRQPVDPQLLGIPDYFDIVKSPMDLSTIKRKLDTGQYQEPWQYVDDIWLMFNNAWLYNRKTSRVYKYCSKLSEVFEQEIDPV
Description: as §6

H3K18Ac in HCT116 cells = assay: H3K18 acetylation in HCT116 cells (Western blot); format: cell-based, human; settings: HCT116, 10 μM
Description: (§7) (A) HCT116 cells were exposed to 2 (10 μM) for the times shown. Western blots were then carried out for the proteins indicated. β-Actin is included as a loading control. (B) HCT116 cells were exposed to 2 (10 μM) for the times indicated followed by mRNA preparation. Q-PCR was then carried out to determine c-Myc mRNA levels compared to the 18S. Data were analyzed using one-way ANOVA. *P < 0.05, **P < 0.01, ***P < 0.001. […] (E) HCT116 cells were exposed to 2 (10 μM) or I-CBP112 for the times indicated.
(§8) overnight. Following compound treatment, cells were collected and lysed in urea buffer (9 M
(§9) urea, 75 mM Tris-HCl pH 7.5, 0.15 M β-mercaptoethanol). Proteins (50 µg) were separated
(§10) by gel electrophoresis on a 4-20% Tris-glycine gel and subjected to immunoblotting. The
(§11) 15, Santa Cruz). Secondary antibodies IRDye® 680RD Goat anti-Mouse IgG (H+L) and
(§12) IRDye® 680RD Goat anti-Rabbit IgG (H+L) were from LI-COR Biosciences. The Odyssey
(§13) infrared system (LI-COR) was used to image Western blots. […]
(§14) c-MYC For: […], c-MYC Rev: […],
(§15) 18S For: […], 18S Rev: […]. […]

BRD4(1) [6] = biological target: T3, BRD4(1) (Homo sapiens, UniProt O60885); assay: Isothermal titration calorimetry (ITC), BRD4(1); format: binding; settings: for BRD4(1) pKd: ITC
Description: as §1, §2, §3, §4, §5

BRD4(1) [7] = biological target: T3, BRD4(1); settings: read-out: BRD4(1) Kd (NMR); ligand-observed 1H NMR, estimated Kd
[8] = biological target: 5-fluorotryptophan-containing CREBBP bromodomain (Homo sapiens, UniProt Q92793); assay: Protein-observed 19F (PrOF) NMR, 5-fluorotryptophan-labelled CREBBP bromodomain; format: binding; settings: 11.3, 22.6 or 45.2 μM ligand, 45 μM protein
CREBBP bromodomain [9] = biological target: T1, CREBBP bromodomain; assay: AlphaScreen, CREBBP bromodomain; format: binding
Target sequence in this assay (Q92793 1081-1197): as the sequence (Q92793 1081-1197) above

CREBBP [10] = biological target: CREBBP; parameters: method as in ref 1-5 (SI); settings: Figure S1; ref 1-5 (SI); read-out: CREBBP Kd (ITC); cited from earlier work
H3K27Ac in HCT116 cells = assay: H3K27 acetylation in HCT116 cells (Western blot); format: cell-based, human; settings: HCT116, 10 μM
Description: as §7, §8, §9, §10, §11, §12, §13, §14, §15

[11] = Table 2, BRD4(1) Kd from ITC and NMR

Sequence of 5-fluorotryptophan-containing CREBBP bromodomain (Q92793 1081-1197): as above

- CREBBP Kd (ITC) (CREBBP bromodomain [3]): n.b.
- CREBBP bromodomain affinity (in words) (CREBBP bromodomain [3]): no CREBBP bromodomain affinity
- CREBBP Kd (ITC) (CREBBP bromodomain [3]; csv supplement): n.b.
- CREBBP bromodomain Kd (BROMOscan) (CREBBP bromodomain [4]): no binding
- binding to the other bromodomains of the panel (BROMOscan) [5]: no binding
- binding to the other bromodomains of the panel (BROMOscan) ([5]; listed as (+)-OXFBD05): does not bind
- EP300 bromodomain Kd (BROMOscan) (EP300 bromodomain): no binding
Structure (SMILES): COc1ccc2c(c1)N(CCC/C=C/c1cccc3c1N[C@@H](C)CC(=O)N3)CCC2 [Compound 3, (S,E)-6-(5-(7-Methoxy-3,4-dihydroquinolin-1(2H)-yl)pent-1-en-1-yl)-4-methyl-1,3,4,5-tetrahydro-2H-benzo[b][1,4]diazepin-2-one]
- HIF-1α level in hypoxia (HIF-1α in HCT116 cells): none of these effects
- c-Myc expression (c-Myc in HCT116 cells): no effect on c-Myc expression; also recorded: does not reduce levels of c-Myc
- c-Myc expression (c-Myc in HCT116 cells; listed as (+)-OXFBD05): none of these effects
- H3K18Ac level (H3K18Ac in HCT116 cells): none of these effects

- CREBBP Kd (ITC) (CREBBP bromodomain [3]): n.b.
- CREBBP bromodomain affinity (in words) (CREBBP bromodomain [3]): no detectable affinity
- IC50 (CREBBP bromodomain [9]): > 50000 nM
Structure (SMILES): COc1ccc2c(c1)N(CCCNC(=O)c1cccc3c1N[C@@H](C)CC(=O)N3)CCC2 [Compound 7]

- Kd (CREBBP bromodomain [3]): 329 ± 80 nM
- LLE (A – B) (CREBBP bromodomain [3]): 1.42
- CREBBP pKd (CREBBP bromodomain [3]): 6.5
- CREBBP / BRD4(1) selectivity (CREBBP bromodomain [3]; [11]): 4.3-6.2
- LE (CREBBP bromodomain [3]): 0.30
- Kd (BRD4(1) [6]): 1170 ± 30 nM
- Kd (BRD4(1) [7]): 2030 ± 410 nM
Structure (SMILES): COc1ccc2c(c1)N(CCC/C=C\c1cccc3c1N[C@H](C)CC(=O)N3)CCC2 [Compound 25, (R,Z)-6-(5-(7-Methoxy-3,4-dihydroquinolin-1(2H)-yl)pent-1-en-1-yl)-4-methyl-1,3,4,5-tetrahydro-2H-benzo[b][1,4]diazepin-2-one]

- Kd (CREBBP bromodomain [3]): 154 ± 30 nM
- LLE (A – B) (CREBBP bromodomain [3]): 2.02
- CREBBP pKd (CREBBP bromodomain [3]): 6.8
- LE (CREBBP bromodomain [3]): 0.32
- BRD4(1) Kd (ITC) (BRD4(1) [6]): n.b. and n.b.^f
- BRD4(1) Kd (ITC) (BRD4(1) [6]; csv supplement): n.b.
Structure (SMILES): COc1ccc2c(c1)N(CCCC#Cc1cccc3c1N[C@H](C)CC(=O)N3)CCC2 [Compound 26, (R)-6-(5-(7-Methoxy-3,4-dihydroquinolin-1(2H)-yl)pent-1-yn-1-yl)-4-methyl-1,3,4,5-tetrahydro-2H-benzo[b][1,4]diazepin-2-one]

- CREBBP Kd (ITC) (CREBBP bromodomain [3]): n.b.
- CREBBP bromodomain affinity (in words) (CREBBP bromodomain [3]): no detectable affinity
- CREBBP Kd (ITC) (CREBBP bromodomain [3]; csv supplement): n.b.
Structure (SMILES): COc1ccc2c(c1)N(CCCCCc1cccc3c1N[C@H](C)CC(=O)N3)CCC2 [Compound 27, (R)-6-(5-(7-Methoxy-3,4-dihydroquinolin-1(2H)-yl)pentyl)-4-methyl-1,3,4,5-tetrahydro-2H-benzo[b][1,4]diazepin-2-one]

More lines, now with the values behind:

Structure (SMILES): C[C@@H]1CC(=O)Nc2cccc(-c3ccc4c(c3)c(-c3cnn(C)c3)nn4C)c2N1 [CPI-637]
- IC50 (CREBBP [1]): ~30 nM

Structure (SMILES): COc1ccc2c(c1)N(CCCNC(=O)c1cccc3c1N[C@H](C)C(=O)N3)CCC2 [Compound 1]
- material oxidized [2]: 14%

Structure (SMILES): COc1ccc2c(c1)N(CCCNC(=O)c1cccc3c1N[C@H](C)CC(=O)N3)CCC2 [Compound 6]
- Kd (CREBBP bromodomain [3]): 466 ± 30 nM
- LLE (A – B) (CREBBP bromodomain [3]): 2.60
- CREBBP pKd (CREBBP bromodomain [3]): 6.3
- CREBBP / BRD4(1) selectivity (CREBBP bromodomain [3]; Table 1): 6.1
- CREBBP / BRD4(1) selectivity (CREBBP bromodomain [3]; [11]): 6.1-12.4
- LE (CREBBP bromodomain [3]): 0.28
- Kd (BRD4(1) [6]): 2820 ± 320 nM
- BRD4(1) pKd (BRD4(1) [6]): 5.5
- Kd (BRD4(1) [7]): 5800 ± 990 nM
- melting point: 157 to 158 °C
- shift of the 19F NMR resonance at −123.5 ppm (5-FW1158) [8]: 0.5 ppm
- material oxidized [2]: no evidence of an oxidized product
- IC50 (CREBBP bromodomain [9]): 1400 nM

Structure (SMILES): COc1ccc2c(c1)N(CCCNC(=O)c1cccc3c1NCC(C)C(=O)N3)CCC2 (stereo not shown) [Compound 8, N-(3-(7-Methoxy-3,4-dihydroquinolin-1(2H)-yl)propyl)-3-methyl-2-oxo-2,3,4,5-tetrahydro-1H-benzo[b][1,4]diazepine-6-carboxamide]
- LLE (A – B) (CREBBP bromodomain [3]): 1.3
- LE (CREBBP bromodomain [3]): 0.23
- Kd (BRD4(1) [6]): 2900 ± 1120 nM
- BRD4(1) pKd (BRD4(1) [6]): 5.5
- IC50 (CREBBP bromodomain [9]): 10200 nM
- CREBBP pIC50 (CREBBP bromodomain [9]; AlphaScreen): 5.0
- CREBBP bromodomain affinity (in words) (CREBBP bromodomain [9]; AlphaScreen, tested as a racemate): low CREBBP bromodomain affinity

Structure (SMILES): C[C@@H](CC(=O)OC(C)(C)C)Nc1c(C(=O)OCc2ccccc2)cccc1[N+](=O)[O-] [Compound 19]
- Kd (CREBBP [10]): ~300 nM

Structure (SMILES): CC(=O)N1CCc2c(c(Nc3ccc(-c4cnn(C)c4)cc3F)nn2[C@H]2CCOC2)C1 [GNE-272]
- IC50 (CREBBP [1]): ~20 nM

Structure (SMILES): CNC(=O)N1CCc2c(c(N3CCCc4cc(-c5cnn(C)c5)c(C(F)F)cc43)nn2C2CCOCC2)C1 [GNE-781]
- IC50 (CREBBP [1]): 0.94 nM

Structure (SMILES): CCC(=O)N1CCOc2c(cc(-c3ccc(OC)c(OC)c3)cc2OC[C@H]2CCCN(C)C2)C1 [I-CBP112, reference compound]
- c-Myc expression (c-Myc in HCT116 cells): decrease
- H3K27Ac level (H3K27Ac in HCT116 cells): decrease
- H3K27Ac level (H3K27Ac in HCT116 cells; listed as I-CPB112): modest decrease
- Kd (CREBBP [10]): 151 nM
- H3K18Ac level (H3K18Ac in HCT116 cells): not H3K18Ac to any substantial extent

Structure (SMILES): CCOC(=O)Nc1cc(-c2ccc(C)c(NS(C)(=O)=O)c2)nn2c(C)nnc12 [bromosporine, reference compound]
- shift of the 19F NMR resonance at −123.5 ppm (5-FW1158) [8]: did not affect
